Among the data in patent US20050222402A1, “Dna encoding rat bombesin receptor subtype-3 (brs-3) and uses thereof” (priority 2001, published 2005) are EC50 and Ki values, retold here.

The EC50 is the concentration giving half of the maximal effect. The term Ki denotes the equilibrium dissociation constant of an inhibitor or competing ligand from its target.

One assay concerns the target T1, mouse BRS-3 (Mus musculus, UniProt O54798, S28P/V27A).
T1 construct: expressed in transfected cells; host or cells: same expression system as rat BRS-3 (pE3 / 293EBNA)
T1 sequence (O54798 1-399 V27A/S28P): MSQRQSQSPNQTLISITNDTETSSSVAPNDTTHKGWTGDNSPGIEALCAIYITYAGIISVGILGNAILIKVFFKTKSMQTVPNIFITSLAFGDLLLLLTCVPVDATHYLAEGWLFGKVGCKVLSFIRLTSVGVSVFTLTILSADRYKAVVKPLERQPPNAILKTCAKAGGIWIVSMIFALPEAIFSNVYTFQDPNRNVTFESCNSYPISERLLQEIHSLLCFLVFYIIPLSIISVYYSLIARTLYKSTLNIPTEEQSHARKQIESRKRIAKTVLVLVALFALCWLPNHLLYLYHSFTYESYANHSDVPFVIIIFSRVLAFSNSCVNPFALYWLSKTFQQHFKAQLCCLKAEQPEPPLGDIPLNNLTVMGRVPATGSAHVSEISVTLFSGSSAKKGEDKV
Description: Calcium mobilization assay (FLIPR), same expression system. The format is cell-based. The conditions noted are these: data not shown. In general terms: Calcium assays in cells follow changes in intracellular calcium, usually with a dye or a luminescent sensor.

In another assay the target is T2, human BRS-3 (Homo sapiens, UniProt P32247).
T2 construct: expressed in transfected cells; host or cells: 293EBNA cells, pE3 expression vector
T2 sequence (P32247 1-399): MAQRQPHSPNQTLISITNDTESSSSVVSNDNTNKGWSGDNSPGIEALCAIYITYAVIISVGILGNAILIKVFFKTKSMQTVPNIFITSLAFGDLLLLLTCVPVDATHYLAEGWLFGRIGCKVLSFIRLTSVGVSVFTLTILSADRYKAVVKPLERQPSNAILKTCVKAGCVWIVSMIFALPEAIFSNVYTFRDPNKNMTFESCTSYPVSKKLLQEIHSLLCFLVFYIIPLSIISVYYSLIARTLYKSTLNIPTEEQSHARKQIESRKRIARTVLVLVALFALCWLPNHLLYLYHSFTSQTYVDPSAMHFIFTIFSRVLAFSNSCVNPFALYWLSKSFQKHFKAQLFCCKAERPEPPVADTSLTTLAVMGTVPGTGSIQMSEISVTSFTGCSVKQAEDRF
The assay is described as follows: Calcium mobilization assay (FLIPR), transfected 293EBNA cells. The format is cell-based. On the procedure: (§1) The functional activity of rat BRS-3 was also studied by measuring the agonist-induced calcium mobilization response using a Fluorescence Imaging Plate Reader (Molecular Devices, Sunnyvale, Calif.). Transfected 293EBNA cells were plated onto poly-D-lysine coated 96-well plates with black wall and clear bottom (Becton Dickinson, Franklin Lakes, N.J.). After 16-48 hr culture, the cells were loaded with 4 uM Fluo-3-AM fluorescent calcium-indicator dye (Molecular Probes, Eugene, OR) in assay buffer (Hank's balanced salts solution, 10 mM HEPES, pH7.4, 0.1% bovine serum albumin, 2.5 mM probenecid).
The changes in intracellular calcium concentration, as indicated by Fluo-3 fluorescence, were immediately measured by FLIPR. Maximal changes in fluorescence over base line were used to determine agonist response.
(§2) The EC50 values were mean±S.E. calculated from dose-response curves of 3-5 repeated experiments using FLIPR assays.

Another assay has as its target T3, Rat BRS-3/E2 (RB3-E2) (Rattus norvegicus, UniProt Q8K418, E210K/I208V/N204T/Q192R/R196K/R211K/V198M).
T3 construct: expressed in transfected cells; host or cells: 293EBNA cells, pE3 expression vector
T3 sequence (Q8K418 1-399 Q192R/R196K/V198M/N204T/I208V/E210K/R211K): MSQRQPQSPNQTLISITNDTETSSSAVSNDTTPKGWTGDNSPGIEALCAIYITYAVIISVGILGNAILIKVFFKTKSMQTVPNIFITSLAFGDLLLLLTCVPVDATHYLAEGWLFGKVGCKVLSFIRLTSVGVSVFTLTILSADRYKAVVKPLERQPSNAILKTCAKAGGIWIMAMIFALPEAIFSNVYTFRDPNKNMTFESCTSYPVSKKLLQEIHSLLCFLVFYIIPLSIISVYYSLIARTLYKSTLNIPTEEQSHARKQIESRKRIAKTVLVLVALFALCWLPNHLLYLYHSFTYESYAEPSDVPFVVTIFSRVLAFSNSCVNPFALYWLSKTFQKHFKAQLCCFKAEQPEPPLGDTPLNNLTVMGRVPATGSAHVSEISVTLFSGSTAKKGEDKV
Description: Calcium mobilization assay (FLIPR), chimeric receptor. The format is cell-based, rat/human.
Excerpt: Chimeric rat/human BRS-3 genes and substitution mutant rat BRS-3 genes were constructed by using PCR mutagenesis techniques (Fong, T. in Structure-function analysis of G protein coupled receptors, J, Wess, ed, Wiley-Liss, pp. 1-20, (1999)). All the mutant and wild type BRS-3 genes were cloned into pE3 expression vector which contains CMV early promoter, hygromycin-resistance gene and OriP segment from Epstein-Bar virus.
as §1
The changes in intracellular calcium concentration, as indicated by Fluo-3 fluorescence, were immediately measured by FLIPR. Maximal changes in fluorescence over base line were used to determine agonist response. […]
as §2

The target of a further assay is T4, RBB3-E3 (Rattus norvegicus, UniProt Q8K418, A302V/D306A/E299Q/E303D/P308H/S300T/V307M/V310I/V311F/Y298S).
T4 construct: expressed in transfected cells; host or cells: 293EBNA cells, pE3 expression vector
T4 sequence (Q8K418 1-399 Y298S/E299Q/S300T/A302V/E303D/D306A/V307M/P308H/V310I/V311F): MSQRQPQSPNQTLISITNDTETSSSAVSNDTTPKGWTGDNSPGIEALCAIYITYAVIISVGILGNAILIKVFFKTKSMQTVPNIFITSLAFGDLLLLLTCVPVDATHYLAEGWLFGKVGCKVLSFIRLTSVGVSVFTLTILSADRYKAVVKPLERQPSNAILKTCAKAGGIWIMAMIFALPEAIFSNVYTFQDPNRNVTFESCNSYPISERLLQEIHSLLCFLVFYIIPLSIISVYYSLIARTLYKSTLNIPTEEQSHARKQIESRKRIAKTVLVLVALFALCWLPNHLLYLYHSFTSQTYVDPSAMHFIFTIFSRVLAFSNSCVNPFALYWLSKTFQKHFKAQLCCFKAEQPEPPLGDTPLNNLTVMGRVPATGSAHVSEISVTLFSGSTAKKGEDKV
The assay is described as follows: Radioligand binding assay with 125I-dYB. The conditions noted are these: displacement of [125I]dYB by unlabeled dYB. Also noted: species or system rat/human. How it is done:
After removal of cell nuclei by a low speed centrifugation (1000×g) step, the cell membrane proteins were collected by centrifugation at 35,000×g for 20 minutes. The membrane protein concentration was determined by the Bradford method using BSA as standard.
After a 2 hr incubation at room temperature, the binding reaction was terminated by filtering through a GF/c filter-mate and washing the filter with binding buffer using Packard 96-well Topcount Harvester. The amount of radioligand bound to the receptor was determined by measurement of the radioactivity on the filter through liquid scintillation counting. The non-specific binding was defined as the binding in the presence of 1 uM unlabeled dYB.
In general terms: In a radioligand displacement assay an active substance lowers the binding of a labelled ligand.

Non-standard residues stand in square brackets, D forms with d. Residues, ends and D or L forms follow the SMILES beside them. Nle = CCCC[C@H](N)C(=O)O; βAla = NCCC(=O)O

With `CCCC[C@H](NC(=O)[C@H](Cc1ccccc1)NC(=O)[C@H](Cc1c[nH]cn1)NC(=O)CCNC(=O)[C@@H](NC(=O)[C@H](C)NC(=O)[C@H](Cc1c[nH]c2ccccc12)NC(=O)[C@H](CCC(N)=O)NC(=O)[C@H](N)Cc1ccc(O)cc1)C(C)C)C(N)=O` [dYB, [D-Tyr6-betaAla11-Phe13-Nle14] bombesin (6-14)] (H-[dY]QWAV[βAla]HF[Nle]-NH2), at mouse BRS-3, the EC50 entry was “in the uM range”.
Take `CCCC[C@H](NC(=O)[C@H](Cc1ccccc1)NC(=O)[C@H](Cc1cnc[nH]1)NC(=O)CCNC(=O)[C@@H](NC(=O)[C@H](C)NC(=O)[C@H](Cc1c[nH]c2ccccc12)NC(=O)[C@H](CCC(N)=O)NC(=O)[C@H](N)Cc1ccc(O)cc1)C(C)C)C(N)=O` [dYB, [D-Tyr6-betaAla11-Phe13-Nle14] bombesin (6-14)] (H-[dY]QWAV[βAla]HF[Nle]-NH2): the EC50 at human BRS-3 was 1.2 ± 0.4 nM; on Rat BRS-3/E2 (RB3-E2), 990 ± 140 nM. Also, on RBB3-E3, the affinity corresponds to a Ki of 1.2 ± 0.7 nM.
